Test results published in patent US20130316022A1, “METHOD TO ENHANCE ANTIMICROBIAL ACTIVITY BY INCREASING pH” (University of Iowa Research Foundation, priority 2012, published 2013).

Assays:
S. aureus isolate 43SA = test: Bacterial killing by S. aureus-coated grids placed on tracheal surface in vivo
Description: Bacteria were cultured to log phase growth and 1×10^8 bacteria were mixed with 0.1 mg/ml N-hydroxysulfosuccinimide (sulfo-NHS)-biotin (Thermo Scientific) for 1 hour at room temperature. Streptavidin-coated grids were then incubated with biotinylated bacteria for 30 minutes and rinsed in PBS.
Bacteria-coated grids were used in three preparations. They were placed on the airway surface in vivo in pigs. They were tested in ASL removed from pigs after methacholine stimulation. They were also placed on the apical surface of primary cultures of differentiated airway epithelia. In each case, after removal from ASL, they were immediately (2-3 seconds) rinsed with PBS and then immersed in PBS containing the fluorescent indicators SYTO 9 and propidium iodide (Live/Dead BacLight™ Bacterial Viability assay, Invitrogen). Propidium iodide staining and this assay indicate the percentage of dead cells (Invitrogen, Molecular Probes product information and Fig. S7). […]
(§1) For each experimental condition, time point, and/or animal, 2 or 3 grids were examined. For each grid, all live and dead bacteria were counted in 5-16 individual microscopic (60×) fields; each microscopic field contained about 100-1000 bacteria. […]
(§2) To decrease airway pH in non-CF pigs, CO2 concentration was controlled in a humidified chamber (100% measured relative humidity, 25-30° C.) using 0 or 15% CO2 and 21% O2 in N2.

[1] = ASL pH measured in vivo with pH-sensitive planar optode on tracheal surface; set-up: species or system pig
Excerpt: To assess pH in vivo, we used non-invasive dual lifetime referencing to interrogate a 3×3 mm planar optode (pH sensitive foil, PreSens GmbH, Regensburg, Germany)^13 applied directly to the tracheal surface. The device used to transmit and receive the excitation and emission light was a single channel pH meter (pH-1 mini; PreSens GmbH). The tip of the fiberoptic pH meter was kept at the same distance from the tracheal surface in all samples and confirmed by recording the amplitude registered by the device. Calibration before each set of measurements was done by placing the planar optode on the surface of a flat filter soaked in standard pH buffers.
as §2

S. aureus = details: bacteria on grids exposed for 30 seconds
Description: Gold grids (TEM grids, 200 mesh, Ted Pella Inc.) were immersed in 1 mM 11-mercaptoundecanoic acid (HS(CH2)10COOH, MUA, Aldrich) solution for 30 minutes at room temperature and then exposed to 1-ethyl-3-(3-diethylaminopropyl)carbodiimide (EDC) and N-hydroxysuccinimide (NHS) (molar ratio 1:2) for 30 minutes to activate the carboxyl groups of MUA. Grids were then placed in a phosphate buffer solution (PBS), pH 7.4, containing 10 μg/ml streptavidin (Sigma) for 30 minutes and then rinsed with PBS. Streptavidin-coated grids were immersed in 1 M glycine for 30 minutes to quench the reaction and then rinsed with PBS. We used S. aureus isolate 43SA (isolated from a CF pig with pulmonary infection^5), and P. aeruginosa PAO1. […] Bacteria were cultured to log phase growth and 1×10^8 bacteria were mixed with 0.1 mg/ml N-hydroxysulfosuccinimide (sulfo-NHS)-biotin (Thermo Scientific) for 1 hour at room temperature. Streptavidin-coated grids were then incubated with biotinylated bacteria for 30 minutes and rinsed in PBS.
Bacteria-coated grids were used in three preparations. They were placed on the airway surface in vivo in pigs. […]
as §1

## O=C=O [CO2, reference compound]
S. aureus isolate 43SA; non-CF pigs, 15% CO2, grids on surface for 30 seconds
  % dead: 18.5 ± 6.8 (4) %
[1]; non-CF pigs, tracheas exposed to 15% CO2 in vivo
  ASL pH: 6.89 ± 0.15 (6)

## O=C([O-])O.[Na+] [NaHCO3]
S. aureus isolate 43SA; CF pigs, 50 μL 100 mM aerosolized onto airway surface, grids 30 seconds
  % dead: 64.4 ± 7.0 (5) %
[1]; CF pigs, 50 μL 100 mM aerosolized onto airway surface
  ASL pH: 7.43 ± 0.30 (7)

## ethanol [70% alcohol]
S. aureus
  % dead: 97%
